Data from PubChem BioAssay (NCI).
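Test compounds were applied to cells in 96-well plates for 48 hours at 5 doses. Here, GI50 denotes the concentration required for 50% inhibition of growth. The concentration for full growth arrest is given as TGI.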

Tests used:
Assay in all cases: NCI anticancer screen, dose series, 48 h; in the data active = GI50 below about 0.43 µM; inactive = the rest
U251 CNS = tested on: U251 CNS
CAKI-1 renal = tested on: CAKI-1 renal
NCI-H226 lung = tested on: NCI-H226 lung
OVCAR-8 ovarian = tested on: OVCAR-8 ovarian
NCI-H522 lung = tested on: NCI-H522 lung
M14 melanoma = tested on: M14 melanoma
HS 578T breast = tested on: HS 578T breast
SK-MEL-2 melanoma = tested on: SK-MEL-2 melanoma
A498 renal = tested on: A498 renal
MALME-3M melanoma = tested on: MALME-3M melanoma
HCT-15 colon = tested on: HCT-15 colon
COLO 205 colon = tested on: COLO 205 colon
SF-268 CNS = tested on: SF-268 CNS
SF-539 CNS = tested on: SF-539 CNS
786-0 renal = tested on: 786-0 renal
ACHN renal = tested on: ACHN renal
NCI-H460 lung = tested on: NCI-H460 lung
RXF 393 renal = tested on: RXF 393 renal
HOP-92 NSCLC = tested on: HOP-92 NSCLC

COc1ccc2c(c1C)C(=O)C(O)(CC=C(C)C)O2 (stereo not drawn)
> 100 µM: TGI (U251 CNS) | TGI (CAKI-1 renal) | TGI (NCI-H226 lung) | TGI (OVCAR-8 ovarian) | TGI (NCI-H522 lung) | TGI (M14 melanoma) | TGI (HS 578T breast) | TGI (SK-MEL-2 melanoma) | TGI (A498 renal) | TGI (MALME-3M melanoma) | TGI (HCT-15 colon) | TGI (COLO 205 colon) | TGI (SF-268 CNS) | TGI (SF-539 CNS) | TGI (786-0 renal) | TGI (ACHN renal) | TGI (NCI-H460 lung)

CCN1CCN(c2ccc(Nc3ccnc4ccc5nn(C)nc5c34)cc2)CC1
29.8 µM: TGI (SF-268 CNS)
26.2 µM: TGI (NCI-H226 lung)
18.4 µM: TGI (COLO 205 colon)
30 µM: TGI (M14 melanoma)
23.6 µM: TGI (NCI-H522 lung)
27 µM: TGI (U251 CNS)
26.5 µM: TGI (HOP-92 NSCLC)
30.8 µM: TGI (MALME-3M melanoma)
25.3 µM: TGI (OVCAR-8 ovarian)
22.5 µM: TGI (RXF 393 renal)
17.2 µM: TGI (NCI-H460 lung)
29 µM: TGI (CAKI-1 renal)
22.6 µM: TGI (786-0 renal)
28 µM: TGI (ACHN renal)
27.6 µM: TGI (HCT-15 colon)
27.2 µM: TGI (SF-539 CNS)

CC(=O)Oc1ccccc1-c1cc2ccccc2oc1=O
> 100 µM: TGI (NCI-H226 lung) | TGI (OVCAR-8 ovarian) | TGI (NCI-H522 lung) | TGI (M14 melanoma) | TGI (HS 578T breast) | TGI (SK-MEL-2 melanoma) | TGI (A498 renal) | TGI (MALME-3M melanoma) | TGI (HCT-15 colon) | TGI (COLO 205 colon) | TGI (SF-268 CNS) | TGI (SF-539 CNS) | TGI (786-0 renal) | TGI (ACHN renal) | TGI (NCI-H460 lung)

Cc1cccc2c1[C@]13OC(C)[C@]4(C)CC5OC(=O)[C@@]1(C)[C@@H]5[C@]34C(=O)O2 (stereo partly drawn)
> 100 µM: TGI (U251 CNS) | TGI (CAKI-1 renal) | TGI (NCI-H226 lung) | TGI (OVCAR-8 ovarian) | TGI (NCI-H522 lung) | TGI (M14 melanoma) | TGI (HS 578T breast) | TGI (SK-MEL-2 melanoma) | TGI (A498 renal) | TGI (MALME-3M melanoma) | TGI (HCT-15 colon) | TGI (COLO 205 colon) | TGI (SF-268 CNS) | TGI (SF-539 CNS) | TGI (786-0 renal) | TGI (ACHN renal) | TGI (NCI-H460 lung)

O=C(C[n+]1ccccc1)NNC(=O)/C(=C/c1ccc2c(c1)OCO2)NC(=O)c1ccccc1
> 76.5 µM: TGI (U251 CNS)
> 92.4 µM: TGI (NCI-H226 lung)
> 65.5 µM: TGI (COLO 205 colon)
> 63.5 µM: TGI (HCT-15 colon)
> 83.9 µM: TGI (RXF 393 renal)
75.1 µM: TGI (SF-539 CNS)
98.3 µM: TGI (NCI-H460 lung)
> 100 µM: TGI (CAKI-1 renal) | TGI (M14 melanoma) | TGI (HOP-92 NSCLC) | TGI (SK-MEL-2 melanoma) | TGI (A498 renal) | TGI (MALME-3M melanoma) | TGI (SF-268 CNS) | TGI (ACHN renal)
> 90.7 µM: TGI (786-0 renal)
> 70.8 µM: TGI (NCI-H522 lung)
> 85 µM: TGI (OVCAR-8 ovarian)

C[C@H]1[C@H](C)CC[C@]2(C)CC[C@]3(C)C(=C[C@@H](O)[C@@H]4[C@@]5(C)[C@H](O)[C@@H](O)[C@H](O)C(C)(C)[C@@H]5CC[C@]43C)[C@H]12
> 100 µM: TGI (RXF 393 renal) | TGI (U251 CNS) | TGI (CAKI-1 renal) | TGI (OVCAR-8 ovarian) | TGI (M14 melanoma) | TGI (HS 578T breast) | TGI (SK-MEL-2 melanoma) | TGI (A498 renal) | TGI (HCT-15 colon) | TGI (COLO 205 colon) | TGI (SF-268 CNS) | TGI (SF-539 CNS) | TGI (786-0 renal) | TGI (ACHN renal) | TGI (NCI-H460 lung)
active: GI50 (RXF 393 renal) 0.361 µM

C/C(=C1/CCCC2(N=NCC2c2ccccc2)C1=O)c1ccccc1 (stereo not drawn)
64.2 µM: TGI (OVCAR-8 ovarian)
42.1 µM: TGI (SK-MEL-2 melanoma)
79.5 µM: TGI (RXF 393 renal)
29 µM: TGI (M14 melanoma)
31.1 µM: TGI (COLO 205 colon)
41.3 µM: TGI (NCI-H226 lung)
59.6 µM: TGI (NCI-H522 lung)
72 µM: TGI (U251 CNS)
59.7 µM: TGI (MALME-3M melanoma)
> 100 µM: TGI (HOP-92 NSCLC) | TGI (HCT-15 colon) | TGI (SF-268 CNS) | TGI (SF-539 CNS) | TGI (786-0 renal) | TGI (ACHN renal) | TGI (NCI-H460 lung)

O=C1C(Cl)C(c2ccccc2)N1n1cnc2ccccc2c1=O (stereo not drawn)
> 100 µM: TGI (RXF 393 renal) | TGI (U251 CNS) | TGI (CAKI-1 renal) | TGI (NCI-H226 lung) | TGI (OVCAR-8 ovarian) | TGI (NCI-H522 lung) | TGI (M14 melanoma) | TGI (SK-MEL-2 melanoma) | TGI (MALME-3M melanoma) | TGI (HCT-15 colon) | TGI (COLO 205 colon) | TGI (SF-268 CNS) | TGI (786-0 renal) | TGI (ACHN renal) | TGI (NCI-H460 lung)

CC1(C)c2ccccc2C(=O)C12CCC(=O)CC2
> 100 µM: TGI (U251 CNS) | TGI (CAKI-1 renal) | TGI (NCI-H226 lung) | TGI (OVCAR-8 ovarian) | TGI (NCI-H522 lung) | TGI (M14 melanoma) | TGI (HS 578T breast) | TGI (SK-MEL-2 melanoma) | TGI (MALME-3M melanoma) | TGI (HCT-15 colon) | TGI (COLO 205 colon) | TGI (SF-268 CNS) | TGI (SF-539 CNS) | TGI (786-0 renal) | TGI (ACHN renal) | TGI (NCI-H460 lung)
96 µM: TGI (RXF 393 renal)

Clc1ccc(-c2c(C3=NCCN3)nnn2-c2ccc(Cl)cc2)cc1
30.1 µM: TGI (NCI-H522 lung)
33.9 µM: TGI (MALME-3M melanoma)
38.4 µM: TGI (A498 renal)
45.2 µM: TGI (U251 CNS)
31.7 µM: TGI (M14 melanoma)
> 100 µM: TGI (CAKI-1 renal) | TGI (NCI-H226 lung) | TGI (OVCAR-8 ovarian) | TGI (HCT-15 colon) | TGI (SF-268 CNS) | TGI (ACHN renal) | TGI (NCI-H460 lung)
58.4 µM: TGI (786-0 renal)
75.8 µM: TGI (RXF 393 renal)
25.4 µM: TGI (COLO 205 colon)
26.1 µM: TGI (SK-MEL-2 melanoma)
50.2 µM: TGI (HOP-92 NSCLC)
34.2 µM: TGI (SF-539 CNS)

COc1cc2c(cc1OC)C(O)[C@H](Br)C(C)(C)O2 (stereo partly drawn)
> 100 µM: TGI (RXF 393 renal) | TGI (U251 CNS) | TGI (NCI-H226 lung) | TGI (OVCAR-8 ovarian) | TGI (NCI-H522 lung) | TGI (M14 melanoma) | TGI (HOP-92 NSCLC) | TGI (SK-MEL-2 melanoma) | TGI (MALME-3M melanoma) | TGI (HCT-15 colon) | TGI (COLO 205 colon) | TGI (SF-268 CNS) | TGI (SF-539 CNS) | TGI (786-0 renal) | TGI (ACHN renal) | TGI (NCI-H460 lung)

CC(C)(C)C(=O)/C=C/c1ccc(Oc2ccccc2)cc1
32.7 µM: TGI (A498 renal) | TGI (ACHN renal)
28.4 µM: TGI (U251 CNS)
43.9 µM: TGI (NCI-H460 lung)
62.1 µM: TGI (SF-268 CNS)
> 100 µM: TGI (OVCAR-8 ovarian)
52.8 µM: TGI (RXF 393 renal)
36.2 µM: TGI (NCI-H226 lung)
40 µM: TGI (786-0 renal)
34.5 µM: TGI (M14 melanoma)
44.6 µM: TGI (MALME-3M melanoma)
24.1 µM: TGI (NCI-H522 lung)
37.9 µM: TGI (SK-MEL-2 melanoma)

COC(=O)C(=C/c1ccc(OC)cc1)/C(C(=O)O)=C(/C)c1ccccc1
> 100 µM: TGI (RXF 393 renal) | TGI (U251 CNS) | TGI (CAKI-1 renal) | TGI (NCI-H226 lung) | TGI (OVCAR-8 ovarian) | TGI (NCI-H522 lung) | TGI (M14 melanoma) | TGI (HOP-92 NSCLC) | TGI (SK-MEL-2 melanoma) | TGI (A498 renal) | TGI (MALME-3M melanoma) | TGI (HCT-15 colon) | TGI (COLO 205 colon) | TGI (SF-539 CNS) | TGI (786-0 renal) | TGI (ACHN renal) | TGI (NCI-H460 lung)

CC12CCC(C(=O)OC1=O)C2(C)C (stereo not drawn)
> 100 µM: TGI (RXF 393 renal) | TGI (U251 CNS) | TGI (NCI-H226 lung) | TGI (OVCAR-8 ovarian) | TGI (NCI-H522 lung) | TGI (M14 melanoma) | TGI (HS 578T breast) | TGI (SK-MEL-2 melanoma) | TGI (A498 renal) | TGI (MALME-3M melanoma) | TGI (HCT-15 colon) | TGI (COLO 205 colon) | TGI (SF-268 CNS) | TGI (SF-539 CNS) | TGI (786-0 renal) | TGI (ACHN renal) | TGI (NCI-H460 lung)
